These are literature values, as cited in patent US8440231B2, “Swellable particles for drug delivery” (STC.UNM, priority 2006, dated 2013).

For `CC(=O)N[C@@H](CS)C(=O)O` [NACS, N-acetylcysteine], the soluble in water was 100 mg/mL.
